Each structure is given as a SMILES string.

In test [1] the target is T1, bovine mincle CRD (Bos taurus, UniProt E1BHM0, I174T).
T1 construct: gene CLEC4E; C-type carbohydrate recognition domain, residues 78-211
T1 sequence (E1BHM0 78-211 I174T): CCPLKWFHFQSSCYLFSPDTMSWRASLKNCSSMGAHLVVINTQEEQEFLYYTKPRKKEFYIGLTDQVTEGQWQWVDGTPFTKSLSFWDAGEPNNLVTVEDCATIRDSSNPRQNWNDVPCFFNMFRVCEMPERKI
Put plainly: competition with […]-Man31-BSA on immobilized biotin-tagged CRD. In kind it is binding. The note with it: pH 7.8, 1.5 M NaCl, 2.5 mM CaCl2, 4 °C.

Test [2] addresses T1, bovine mincle CRD. Described as above. In kind it is binding.
The mark [3] stands for this setting: reported as KI(trehalose)/KI(acyltrehalose) ratio.

`CCCC(=O)OC[C@H]1O[C@H](O[C@H]2O[C@H](CO)[C@@H](O)[C@H](O)[C@H]2O)[C@H](O)[C@@H](O)[C@@H]1O` [mono-n-butanoyl derivative of trehalose]: on bovine mincle CRD [1] (setting [3]), the KI entry is recorded as “the mono-n-butanoyl derivative showed enhanced affinity compared with trehalose”.
With `CO[C@H]1O[C@H](CO)[C@@H](O)[C@H](O)[C@H]1O` [α-methyl glucoside], the KI result at bovine mincle CRD [1] is “The mean ratio of KI values for α-methyl glucoside and trehalose”.
One may read the Ki as a dissociation constant, usually derived from enzyme kinetics or from competition with a known ligand. A low value points to a stronger hold on the target. Consider `CCCCCCCC(=O)OC[C@H]1O[C@H](O[C@H]2O[C@H](CO)[C@@H](O)[C@H](O)[C@H]2O)[C@H](O)[C@@H](O)[C@@H]1O` [mono-octanoyl trehalose], for which the Ki on bovine mincle CRD [2] was determined as 58 ± 8 µM.
In the case of `CC(=O)OC[C@H]1O[C@H](O[C@H]2O[C@H](COC(C)=O)[C@@H](O)[C@H](O)[C@H]2O)[C@H](O)[C@@H](O)[C@@H]1O` [trehalose acetylated at the two 6-OH groups], the KI result at bovine mincle CRD [1] (setting [3]) is “acetylation at the two 6-OH groups is tolerated”.

(Values after paper PMC3789947, “Mechanism for Recognition of an Unusual Mycobacterial Glycolipid by the Macrophage Receptor Mincle” (The Journal of Biological Chemistry, 2013).)
